# Test results reported in patent US20110045021A1, “SUGAR IMMUNOGENS” (United Therapeutics Corporation, priority 2007, published 2011).
# Test: Binding of human sera to a glycan microarray, measured by fluorescent anti-human antibodies
# Settings: human sera (n=10), FIG. 1
# Text: FIG. 1 provides an analysis of binding of human sera (n=10) to a glycan microarray measured by fluorescent anti-human antibodies.
# To identify carbohydrates that are naturally or inherently antigenic to the human immune system, one can screen human serum antibodies against immobilized glycans (see FIG. 1). This may reveal carbohydrates, and/or carbohydrate arrangements which are recognised as “non-self”. […] By incorporating rhamnose, or a similar antigenic mimics into the natural oligomannose structure of gp120, the inherent tolerance to the (mannose) sugars of HIV may be overcome.
row,Compound,antigenicity (human serum antibody reactivity against immobilized glycans)
1,[Man(α1-2)Man(α1-6)][Man(α1-2)Man(α1-3)]Man [D2D3],naturally antigenic
2,OC[C@H]1O[C@H](O)[C@@H](O)[C@@H](O)[C@@H]1O [alpha-D-Mannose],is not
3,"C[C@H]1O[C@H](O)[C@@H](O)[C@@H](O)[C@@H]1O [alpha-D-rhamnose, 6-deoxy-alpha-D-mannose]",antigenic sugar
4,Man(α1-2)Man(α1-2)Man(α1-3)Man [D1],naturally antigenic
